ChEMBL document CHEMBL3585275, “Glycosyl hydroperoxides: a new class of potential antimalarial agents” (Bioorg Med Chem, 2015)
≈ marks a conversion by molar mass, not a printed value.

Tests used:
[1] = Inhibition of hemin crystallization at 0.25 to 10 mol equiv after 18 hrs by spectrophotometric analysis; assay type: physicochemical
[2] = test system: Plasmodium falciparum; test: Antimalarial activity against chloroquine-sensitive Plasmodium falciparum D10 infected in human type A-positive red blood cells assessed as parasite growth inhibition after 72 hrs by lactate dehydrogenase assay; assay type: functional, organism-based; details: D10, 72 h
[3] = test system: Plasmodium falciparum; test: Antimalarial activity against chloroquine-resistant Plasmodium falciparum W2 infected in human type A-positive red blood cells assessed as parasite growth inhibition after 72 hrs by lactate dehydrogenase assay; assay type: functional, organism-based; details: W2, 72 h

SMILES | inhibition (INH) [1] | IC50 [2] [µg/mL] | IC50 [3] [µg/mL]
CCCCCCCCCCCCCCCCCC(=O)O[C@@H]1C[C@@H](OO)O[C@H]1[C@@H](O)CO | Not Active | > 5 | > 5
CCCCCCCCCCCCCCCCCCOC[C@H]1O[C@H](OO)C[C@@H](OCCCCCCCCCCCCCCCCCC)[C@H]1OCCCCCCCCCCCCCCCCCC | Not Active | > 5 | > 5
CCCCCCCO[C@H]1C[C@@H](OO)OC[C@H]1OCCCCCCC | Active | 1.42 (≈ 4.09 µM) | 1.69 (≈ 4.88 µM)
CCCCCCCOC[C@H]1O[C@H](OO)C[C@@H](OCCCCCCC)[C@H]1OCCCCCCC | Not Active | > 5 | > 5
CCN(CC)CCCC(C)Nc1ccnc2cc(Cl)ccc12 (stereo not drawn) [CHLOROQUINE] | Active | – | –
CCCCCCCCCCCCOC[C@H]1O[C@H](OO)C[C@@H](OCCCCCCCCCCCC)[C@H]1OCCCCCCCCCCCC | Not Active | > 5 | > 5
C[C@@H]1CC[C@H]2[C@@H](C)C(=O)O[C@@H]3O[C@@]4(C)CC[C@@H]1[C@]32OO4 [ARTEMISININ] | – | 0.0121 (≈ 0.043 µM) | 0.00824 (≈ 0.0292 µM)
